{"source": "patent US9707239B2", "about": "“Compounds that modulate oxidative stress” (vTv Therapeutics LLC, priority 2011, dated 2017)", "key": {"NHLF cells [1]": {"tested_on": "NHLF cells", "experiment": "Cytoprotection of cisplatin (CDDP)-treated NHLF cells (propidium iodide staining)", "type": "cell-based", "conditions": "NHLF cells, compound 24 hours prior to cisplatin exposure, FIG. 8", "description": "(§1) A key outcome of Bach1 derepression and Nrf2 activation are the induction of cytoprotective genes. A method to test such cytoprotection is to assess the ability of a compound to protect normal human cells such as lung fibroblasts from toxicity due to cisplatin exposure. A model of cellular cytoprotection was established whereby normal human lung fibroblasts were treated with Bach1 modulators and then subsequently exposed to cisplatin. NHLF cells are very sensitive to cisplatin exposure; following a dose of 200 uM cisplatin, >90% of NHLF cells are propidium iodide positive, a measure of cell death."}, "HMOX1 [2]": {"tested_on": "HMOX1", "experiment": "HMOX1 induction in human bone marrow-derived mesenchymal stem cells (Western blotting)", "type": "cell-based", "conditions": "BMMSC, 3 and 10 days of exposure, FIG. 9", "description": "Previous work has shown that HMOX1 expression can suppress the differentiation of human bone marrow mesenchymal stem cells (BMMSC) into adipocytes, a process termed adipogenesis [Li et al., Diabetes 57(6):1526-1535 (2008)]. As such, we tested Bach1 modulators for the ability to suppress BMMSC differentiation into adipocytes in the presence of high glucose containing media. Two Bach1 modulators and a null compound were tested to determine the ability of the compounds to induce HMOX1 after 3 and 10 days of exposure to compound."}, "[3]": {"tested_on": "human bone marrow mesenchymal stem cells (BMMSC)", "experiment": "Differentiation of bone marrow mesenchymal stem cells to adipocytes (Oil Red staining)", "type": "cell-based", "conditions": "high glucose, 21 days continuous exposure, FIG. 10", "description": "In this assay, the cells are continuously exposed to compound for 21 days and then tested for the presence of oil-Red staining lipid droplets."}, "HMOX1 [4]": {"tested_on": "HMOX1", "experiment": "HMOX1 induction in NHLF cells in the cisplatin cytoprotection model", "type": "cell-based, human", "conditions": "compound 24 hours prior to cisplatin, FIG. 8", "description": "as §1"}, "human Bach1": {"tested_on": "human Bach1", "experiment": "MARE controlled luciferase reporter gene assay in HepG2 cells with or without Bach1 expression", "type": "cell-based", "conditions": "transient transfection, with or without Bach1 expressing plasmid, FIG. 7", "description": "The ability of Compound 13 to act in a manner similar to CoPP provides evidence for the hypothesis that Bach1 activity is being modulated by the compounds. […] To that end, expression vectors were prepared which contained the HMOX1 mARE promoter element recognized by both Bach1 and Nrf2. This element was placed in control of the reporter gene luciferase. Under conditions of transient transfection of HepG2 cells, the reporter has a low level of basal activity due to the relative ratio of Bach1 and Nrf2 found in the cell. Co-transfection with a Bach1 expressing plasmid leads to repression of luciferase activity. Therefore, one can test whether the compounds can increase the level of luciferase in the cells, thus overcoming Bach1 repression. […] Thus, the tested compound is able to overcome suppression by additional Bach1."}, "Nrf2": {"tested_on": "Nrf2", "experiment": "HMOX1 mRNA induction after Nrf2 siRNA silencing", "type": "cell-based, human", "conditions": "NHLF cells, 50 nM siRNA 48 hours, FIG. 5", "description": "Small interfering RNA targeting Nrf-2 (cat# SI03246614) or KEAP-1 (cat# SI03246439) were obtained from Qiagen at 20 nmol/tube. Negative control siRNA (cat#1027280) was also obtained from Qiagen. Lyophilized siRNA in each tube was resuspended with 1 ml of the provided siRNA Suspension Buffer to make a stock solution of 20 μM and tubes were heated at 90° C. for one minute and then at 37° C. for one hour prior to initial use.\nNormal human lung fibroblasts were plated at 5000 cells/well in 96-well plates and allowed to attach. Prior to experiments, well s containing the cells were refreshed with 30 μl of complete growth medium. For each siRNA type, a 4× concentration (200 nM) of siRNA was prepared by adding 11 μl of siRNA stock into 1.1 ml of serum-free medium containing 9 μl/ml of SILENTFECT Lipid Reagent (BioRad, cat#170-3361). This solution was incubated at room temperature for 20 minutes prior to adding 10 μl into each well for a final concentration of 50 nM siRNA. Cells were incubated with siRNA for 48 hours, after which they were treated with compound for either 5 hours (QuantiGene RNA assay) or 15 hours (protein immunofluorescence assay).\nThe predicted response profile is that silencing of Nrf2 should reduce the amount of HMOX1 induction by Compound 13 and other HMOX1 inducers that are electrophiles or reactive compounds. To that end, Compound 13 and other tool compounds were tested in cells that were treated with siRNA directed to Nrf2. Following gene silencing with specific siRNA or control siRNA, the ability of tool compounds to induce HMOX1 mRNA was determined."}, "NHLF cells [5]": {"tested_on": "NHLF cells", "experiment": "ROS measurements (H2DCF-DA imaging)", "type": "cell-based, human", "conditions": "1 hr, cell-by-cell imaging, FIG. 3A/3B", "description": "Secondary growth of NHLF cells were used for all assays. Cells were cultured as above. Cells were plated into 384-well BD-Optilux Plates at 2,000 cells/well and cultured overnight at 37° C. and 5% CO2. The following day, cell were washed and 2,7-dihydrodichlorofluorescin diacetate (H2DCF-DA), 10 μM ferric ammonium citrate (FAC), and Hoechst stain were added to cells for 30 min. The cells were washed once with PBS to remove any H2DCF-DA not taken up by cells. Test compounds were prepared in FBM-2 media at the desired concentrations. The plates and stain-treated cells were incubated with test compounds for 1 hr at 37° C. and 5% CO2. Following the incubation period, ROS generation was determined by imaging the cells on a GE INcell 1000 imager (Hoechst Ex. 360 Em. 535; H2DCF-DA 488 Ex. 480 Em. 535). ROS levels were determined and quantified using GE IN Cell Analyzer Software.\nIn addition to gene profiling, the requirement for ROS generation or chemical reactivity was tested. ROS generation was measured using an automated imaging technique. Compound 13 as well as two other compounds that were found in the screening set were tested in this experiment. Untreated NHLF cells, NHLF cells treated with the HMOX1 inducer CoPP (a negative control), and NHLF cells treated with curcumin or celestrol (positive controls) were included as controls. […] Further experiments were also conducted on chemical derivatives of Compound 13. In those experiments, all compounds tested were found not to induce an elevation of ROS levels in the cell (FIG. 3B). Thus, Compound 13 and related compounds represent a class of agents that elevate HMOX1 production without elevating ROS production."}, "HMOX1 [6]": {"tested_on": "HMOX1", "experiment": "Effect of NAC on compound induction of HMOX gene expression", "type": "cell-based, human", "conditions": "NHLF cells pretreated with 5 mM NAC 1 hr, compound 6 h, FIG. 4", "description": "NHLF cells were grown to 80% confluency and harvested by washing once with HEPES and then trypsinizing. Equal numbers (7×10^4 cells per well) of NHLF cells were plated in 96 well tissue culture (Corning) plates. Cells were incubated overnight in FGM-2 medium prior to exposure to compound. Cells were pretreated with 5 mM N-acetyl cysteine for 1 hr. Cells were treated with either DMSO or compound for 6 h. Preparation of cell lysates was carried out according to Quantigene Reagent system 2.0 protocol (Panomics). Heme oxygenase mRNA induction was detected from cell lysate using the Quantigene Plex 2.0 Assay Kit (Panomics) on the Luminex platform (BIO-RAD). Expression of GAPDH mRNA was used as the internal control for the Quantigen Plex 2.0 Assay. Heme oxygenase data represents the fold change, normalized to control values, above DMSO treated cells.\nA further test of the hypothesis that Compound 13 induces HMOX1 with minimal alteration of cellular redox levels or chemical reactivity was carried out by treating cells with N-acetyl cysteine (NAC). This compound acts to restore cellular glutathione levels and thus prevent oxidative stress. The degree to which NAC can suppress HMOX1 induction is an indicator of the amount of chemical reactivity or ROS stress that a compound is imposing on the cell and thus activating phase II gene transcription. […] Coupled with the data shown in FIG. 3, it is concluded that Compound 13 induces HMOX1 with minimal elevation of ROS or NAC-sensitive chemical reactivity."}}, "note": "“Also recorded” adds a separate entry of the source."}
{"smiles": "Cn1c(Nc2nc3ccc(Cl)cc3s2)nc2cc(C(=O)NCC(=O)O)ccc21", "note": "[Compound 12, {[2-(6-Chloro-benzothiazol-2-ylamino)-1-methyl-1H-benzoimidazole-5-carbonyl]-amino}-acetic acid]", "values": [{"measurement": "protection against cisplatin toxicity", "setting": "NHLF cells [1]", "value": "failed to protect NHLF cells against cisplatin toxicity; also recorded: failed to protect cells from CDDP-mediated cytotoxicity"}, {"measurement": "HMOX1 induction by Western blotting", "setting": "HMOX1 [2]", "value": "failed to induce HMOX1"}, {"measurement": "inhibition of adipogenesis (Oil Red staining)", "setting": "[3]", "value": "fails to inhibit adipogenesis; also recorded: failed to do so"}, {"measurement": "HMOX1 induction", "setting": "HMOX1 [4]", "value": "inactive HMOX1 inducers; also recorded: did not induce HMOX1"}]}
{"smiles": "Cn1c(Nc2nc3ccc(OC(F)(F)F)cc3s2)nc2cc(C(=O)NCCOCCO)ccc21", "note": "[Compound 10, 1-Methyl-2-(6-trifluoromethoxy-benzothiazol-2-ylamino)-1H-benzoimidazole-5-carboxylic acid [2-(2-hydroxy-ethoxy)-ethyl]-amide]", "values": [{"measurement": "protection against cisplatin toxicity", "setting": "NHLF cells [1]", "value": "near-total cellular protection; also recorded: protect the cells from CDDP-mediated toxicity"}, {"measurement": "HMOX1 induction by Western blotting", "setting": "HMOX1 [2]", "value": "induced HMOX1"}, {"measurement": "inhibition of adipogenesis (Oil Red staining)", "setting": "[3]", "value": "suppress Oil-O red staining; also recorded: inhibited stem cell differentiation"}, {"measurement": "HMOX1 induction", "setting": "HMOX1 [4]", "value": "induced HMOX1"}]}
{"smiles": "CNC(=O)c1ccc2[nH]c(Nc3nc4ccc(OC(F)(F)F)cc4s3)nc2c1", "note": "[Compound 7, 2-(6-Trifluoromethoxy-benzothiazol-2-ylamino)-1H-benzoimidazole-5-carboxylic acid methylamide]", "values": [{"measurement": "luciferase activity of HMOX1 mARE reporter", "setting": "human Bach1", "value": "able to induce luciferase activity in the presence or absence of Bach1 protein expression; also recorded: can overcome this repression"}]}
{"smiles": "CC(C)(C)N1C(=O)C=C(c2cccc(-n3cc(-c4ccc(Cl)cc4Cl)nc3Cc3ccc(Br)cc3)c2)S1(=O)=O", "note": "[Compound 15, 5-{3-[2-(4-Bromo-benzyl)-4-(2,4-dichloro-phenyl)-imidazol-1-yl]-phenyl}-2-tert-butyl-1,1-dioxo-1,2-dihydro-isothiazol-3-one]", "values": [{"measurement": "HMOX1 mRNA induction with siRNA directed to Nrf2", "setting": "Nrf2", "value": "affected by the presence of the siRNA for Nrf2; also recorded: requires Nrf2 for full induction of HMOX1 mRNA"}, {"measurement": "ROS production (in words)", "setting": "NHLF cells [5]", "value": "elevated ROS levels to a greater degree than did Compound 13; also recorded: little increase in ROS production"}, {"measurement": "effect of N-acetyl cysteine (NAC) on HMOX1 induction", "setting": "HMOX1 [6]", "value": "inhibited nearly fully by NAC; also recorded: fully suppressed in the presence of NAC"}]}
{"smiles": "CC(C)(C)N1C(=O)C=C(c2cccc(N(CC(=O)c3ccc(Cl)cc3Cl)C(=O)Cc3ccc(Br)cc3)c2)S1(=O)=O", "note": "[Compound 14, 2-(4-Bromo-phenyl)-N-[3-(2-tert-butyl-1,1,3-trioxo-2,3-dihydro-1H-isothiazol-5-yl)-phenyl]-N-[2-(2,4-dichloro-phenyl)-2-oxo-ethyl]-acetamide]", "values": [{"measurement": "HMOX1 mRNA induction with siRNA directed to Nrf2", "setting": "Nrf2", "value": "affected by the presence of the siRNA for Nrf2; also recorded: requires Nrf2 for full induction of HMOX1 mRNA"}, {"measurement": "ROS production (in words)", "setting": "NHLF cells [5]", "value": "elevated ROS levels to a greater degree than did Compound 13; also recorded: little increase in ROS production"}, {"measurement": "effect of N-acetyl cysteine (NAC) on HMOX1 induction", "setting": "HMOX1 [6]", "value": "inhibited nearly fully by NAC; also recorded: fully suppressed in the presence of NAC"}]}
{"smiles": "CN(C)C(=O)CNC(=O)c1ccc2c(c1)nc(Nc1nc3ccc(OC(F)(F)F)cc3s1)n2C", "note": "[Compound 9, 1-Methyl-2-(6-trifluoromethoxy-benzothiazol-2-ylamino)-1H-benzoimidazole-5-carboxylic acid dimethylcarbamoylmethyl-amide]", "values": [{"measurement": "protection against cisplatin toxicity", "setting": "NHLF cells [1]", "value": "near-total cellular protection; also recorded: protect the cells from CDDP-mediated toxicity"}, {"measurement": "HMOX1 induction by Western blotting", "setting": "HMOX1 [2]", "value": "induced HMOX1"}, {"measurement": "inhibition of adipogenesis (Oil Red staining)", "setting": "[3]", "value": "suppress Oil-O red staining; also recorded: inhibited stem cell differentiation"}, {"measurement": "HMOX1 induction", "setting": "HMOX1 [4]", "value": "induced HMOX1"}]}
